Patent US11491134B2, “Composition for inhibiting skin cell proliferation and/or anti-inflammation method for inhibiting skin cell proliferation and/or anti-inflammation and method for treating skin diseases and/or inflammatory diseases” (Industrial Technology Research Institute, priority 2019, dated 2022)

Test system: keratinocytes, HaCaT cells
Assay: Inhibition rate on keratinocyte (HaCaT cell) proliferation, MTT
Assay type: cell-based
Conditions: Homo sapiens
Description: Dimethyl sulfoxide (DMSO) was used as a solvent to prepare apigenin test samples with different concentrations and luteolin test samples with different concentrations. 9 batches of experiments were performed, which respectively were Batch 1 to Batch 9. There were 6 independent experiments in each batch of experiments. In each independent experiment, inhibition rate of an apigenin test sample with a specific concentration on keratinocyte proliferation and inhibition rate of a luteolin test sample with a specific concentration on keratinocyte proliferation were determined, and inhibition rate of a combination of an apigenin test sample with the said specific concentration and a luteolin test sample with the said specific concentration on keratinocyte proliferation was determined. Between the independent experiments, concentrations of apigenin test samples used were different, and concentrations of luteolin test samples used were also different, however, mole ratios or weight ratios of apigenin test samples to luteolin test samples were the same. Moreover, between the batches of experiments, mole ratios or weight ratios of apigenin test samples to luteolin test samples were different. 5×10^3 keratinocytes, HaCaT cells, were inoculated in a 96-well culture plate and then placed in a 37° C. and 5% CO2 incubator for culturing overnight, and cell numbers at this time point (T0) was used as a benchmark for cell proliferation. After overnight culture, a test sample was added to the cells in the culture plate (refer to Table 1, and the cells of the control group were only treated with dimethyl sulfoxide) for co-culturing for 48 hours (T48). After that, the supernatant in the culture plate was removed. After the supernatant was removed, 50 μL MTT solution (0.5 mg/mL; Life Technologies Cat. No. M-6494) was added to cells and then the culture plate was placed in a 37° C. and 5% CO2 incubator for culturing for 1.5 hours. After that, 150 μL DMSO (J. T. Baker, Cat. No. 9224-03) was added to the cells in the culture plate and shaken for 5 minutes. Thereafter, the absorbance of each well of the culture plate was determined at 570 nm by a continuous wavelength microplate reader, and inhibition rate on cell proliferation was calculated through the following formula: Inhibition rate on cell proliferation=T48 Control group570 nm−T48 Experimental group570 nm)/(T48 Control group570 nm−T0 Control group570 nm) In this experiment, the synergistic effects of apigenin and luteolin were evaluated by CalcuSyn software (BIOSOFT). CalcuSyn software is an analysis software which is commonly used to analyze the drug dosage effect of single drug and multiple drugs at present. CalcuSyn software can be used to analyze drug complex interactions and automatically quantify various phenomena such as synergism and inhibition. CalcuSyn software can process the data of individual drugs and combination drugs with constant-ratio or on-constant-ratio, and can evaluate the interaction of combination drugs by the combination index (CI) (Chou and Talalay, Adv. Enzyme Regul. 22:27-55 (1984) calculated by CalcuSyn software. Calculation formula for the combination index is shown in the following: Combination index=C1/IC1+C2/IC2 C1 and C2 are the respective concentrations of the first compound and the second compound at which the activity of achieving a specific physiological or medical purpose is 50% (or 75%, or 90%) when the first compound and the second compound are analyzed in combination; IC1 and IC2 are the respective concentrations at which the activity of achieving a specific physiological or medical purpose of the first compound and the second compound is 50% (or 75%, or 90%) when the first compound and the second compound are independently analyzed. […]

Compound `O=c1cc(-c2ccc(O)cc2)oc2cc(O)cc(O)c12` [Apigenin, apigenin] has an inhibition at 3.125 µM (Batch 1, apigenin 3.125 μM/0.84 μg/mL) of 0%, an inhibition at 6.25 µM (Batch 1, apigenin 6.25 μM/1.69 μg/mL) of 0% and an inhibition at 12.5 µM (Batch 1, apigenin 12.5 μM/3.38 μg/mL) of 12.2%. The inhibition at 25 µM (Batch 1, apigenin 25 μM/6.76 μg/mL) was 29.2%, the inhibition at 50 µM (Batch 1, apigenin 50 μM/13.51 μg/mL) was 72.2% and the inhibition at 100 µM (Batch 1, apigenin 100 μM/27.02 μg/mL) was 103%. The inhibition at 3.125 µM (Batch 2, apigenin 3.125 μM/0.84 μg/mL) was 3.7%, the inhibition at 6.25 µM (Batch 2, apigenin 6.25 μM/1.69 μg/mL) was 5.8% and the inhibition at 12.5 µM (Batch 2, apigenin 12.5 μM/3.38 μg/mL) was 15.7%. The inhibition at 25 µM (Batch 2, apigenin 25 μM/6.76 μg/mL) was 40.7%, the inhibition at 50 µM (Batch 2, apigenin 50 μM/13.51 μg/mL) was 75.6% and the inhibition at 100 µM (Batch 2, apigenin 100 μM/27.02 μg/mL) was 105%. The inhibition at 3.125 µM (Batch 3, apigenin 3.125 μM/0.84 μg/mL) was 0%, the inhibition at 6.25 µM (Batch 3, apigenin 6.25 μM/1.69 μg/mL) was 5% and the inhibition at 12.5 µM (Batch 3, apigenin 12.5 μM/3.38 μg/mL) was 17.2%. For the same compound, the inhibition at 25 µM (Batch 3, apigenin 25 μM/6.76 μg/mL) was 39.7%, the inhibition at 50 µM (Batch 3, apigenin 50 μM/13.51 μg/mL) was 75.3% and the inhibition at 100 µM (Batch 3, apigenin 100 μM/27.02 μg/mL) was 103%. For the same compound, the inhibition at 3.125 µM (Batch 4, apigenin 3.125 μM/0.84 μg/mL) was 0%, the inhibition at 6.25 µM (Batch 4, apigenin 6.25 μM/1.69 μg/mL) was 0% and the inhibition at 12.5 µM (Batch 4, apigenin 12.5 μM/3.38 μg/mL) was 8.9%. For the same compound, the inhibition at 25 µM (Batch 4, apigenin 25 μM/6.76 μg/mL) was 31.9%, the inhibition at 50 µM (Batch 4, apigenin 50 μM/13.51 μg/mL) was 71.9% and the inhibition at 100 µM (Batch 4, apigenin 100 μM/27.02 μg/mL) was 103%. It also gave an inhibition at 3.125 µM (Batch 5, apigenin 3.125 μM/0.84 μg/mL) of 2.3%, an inhibition at 6.25 µM (Batch 5, apigenin 6.25 μM/1.69 μg/mL) of 11.1% and an inhibition at 12.5 µM (Batch 5, apigenin 12.5 μM/3.38 μg/mL) of 18.3%. It also gave an inhibition at 25 µM (Batch 5, apigenin 25 μM/6.76 μg/mL) of 36.2%, an inhibition at 50 µM (Batch 5, apigenin 50 μM/13.51 μg/mL) of 77.1% and an inhibition at 100 µM (Batch 5, apigenin 100 μM/27.02 μg/mL) of 110%. For the same compound, the inhibition at 1.5625 µM (Batch 6, apigenin 1.5625 μM/0.42 μg/mL) was 0%, the inhibition at 3.125 µM (Batch 6, apigenin 3.125 μM/0.84 μg/mL) was 0% and the inhibition at 6.25 µM (Batch 6, apigenin 6.25 μM/1.69 μg/mL) was 0%. For the same compound, the inhibition at 12.5 µM (Batch 6, apigenin 12.5 μM/3.38 μg/mL) was 1.3%, the inhibition at 25 µM (Batch 6, apigenin 25 μM/6.76 μg/mL) was 48.7% and the inhibition at 50 µM (Batch 6, apigenin 50 μM/13.51 μg/mL) was 72%. For the same compound, the inhibition at 0.625 µM (Batch 7, apigenin 0.625 μM/0.17 μg/mL) was 8%, the inhibition at 1.25 µM (Batch 7, apigenin 1.25 μM/0.34 μg/mL) was 8.3% and the inhibition at 2.5 µM (Batch 7, apigenin 2.5 μM/0.68 μg/mL) was 12.8%. It also gave an inhibition at 5 µM (Batch 7, apigenin 5 μM/1.35 μg/mL) of 8.7%, an inhibition at 10 µM (Batch 7, apigenin 10 μM/2.70 μg/mL) of 24.7% and an inhibition at 20 µM (Batch 7, apigenin 20 μM/5.40 μg/mL) of 40.4%. It also gave an inhibition at 0.3125 µM (Batch 8, apigenin 0.3125 μM/0.08 μg/mL) of 4.3%, an inhibition at 0.625 µM (Batch 8, apigenin 0.625 μM/0.17 μg/mL) of 9% and an inhibition at 1.25 µM (Batch 8, apigenin 1.25 μM/0.34 μg/mL) of 10.1%. The inhibition at 2.5 µM (Batch 8, apigenin 2.5 μM/0.68 μg/mL) was 8.9%, the inhibition at 5 µM (Batch 8, apigenin 5 μM/1.35 μg/mL) was 10.4% and the inhibition at 10 µM (Batch 8, apigenin 10 μM/2.70 μg/mL) was 18.3%. For the same compound, the inhibition at 0.15625 µM (Batch 9, apigenin 0.15625 μM/0.04 μg/mL) was 1.4%, the inhibition at 0.3125 µM (Batch 9, apigenin 0.3125 μM/0.08 μg/mL) was 3.9% and the inhibition at 0.625 µM (Batch 9, apigenin 0.625 μM/0.17 μg/mL) was 2.1%. It also gave an inhibition at 1.25 µM (Batch 9, apigenin 1.25 μM/0.34 μg/mL) of 4.6%, an inhibition at 2.5 µM (Batch 9, apigenin 2.5 μM/0.68 μg/mL) of 3.2% and an inhibition at 5 µM (Batch 9, apigenin 5 μM/1.35 μg/mL) of 3.2%.
